We go through 14 molecules from patent US10954252B1, “Inhibitors of human immunodeficiency virus replication” (ViiV HEALTHCARE UK (NO.5) LIMITED, priority 2017, dated 2021).

Data set [1] relates to recombinant NL4-3 virus (nef section replaced with Renilla luciferase gene) in MT-2 cells. The experiment in a line: HIV cell culture assay (antiviral activity, luciferase readout). In kind it is cell-based. The following applies: MT-2 cells infected for 4-5 days with recombinant NL4-3 luciferase virus. The procedure, abridged: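 Serially diluted compounds were present throughout a 4-5 day infection of MT-2 cells by recombinant NL4-3 whose nef region partly encodes Renilla luciferase. Antiviral activity was taken from live-cell luciferase signal, with the 50% effective concentration fitted by the exponential median effect equation.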

The nature of data set [2]: Compound cytotoxicity, XTT-based colorimetric assay. The format is cell-based. As to conditions: human, uninfected MT2 cells. The procedure, abridged: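 XTT colorimetric read-out on day 4 gave CC50 values, using MT2 cells left uninfected but otherwise handled as in the antiviral assay.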

The term EC50 denotes the concentration giving half of the maximal effect. What is called CC50 is the concentration at which the toxic effect on the cells reaches its halfway point. Read a low CC50 as greater toxicity to the cells. Consider `CC(C)c1ccc(-c2cc3[nH]ccc3nc2[C@H](Cc2cc(F)cc(F)c2)NC(=O)Cn2nc(C(F)F)c3c2C(F)(F)[C@@H]2C[C@H]32)cn1` [Example 81, 2-((3bS,4aR)-3-(difluoromethyl)-5,5-difluoro-3b,4,4a,5-tetrahydro-1H-cyclopropa[3,4]cyclopenta[1,2-c]pyrazol-1-yl)-N—((S)-2-(3,5-difluorophenyl)-1-(6-(6-isopropylpyridin-3-yl)-1H-pyrrolo[3,2-b]pyridin-5-yl)ethyl)acetamide], for which the EC50 in data set [1] (Renilla, NL43, Table 1a) worked out at 13.6 nM. Besides, the CC50 at 4 days in data set [2] (Table 1a, day 4, XTT) was 10000 nM.
In the same order, the values of `CCOc1ccc2c(=O)n(-c3ccc(Cl)c4c(NS(C)(=O)=O)nn(C)c34)c([C@H](Cc3cc(F)cc(F)c3)NC(=O)Cn3nc(C(F)F)c4c3C(F)(F)[C@@H]3C[C@H]43)nc2n1` (mixture of isomers) [Example 60.2, N-[(1S)-1-[3-(4-chloro-3-methanesulfonamido-1-methyl-1H-indazol-7-yl)-7-ethoxy-4-oxo-3H,4H-pyrido[2,3-d]pyrimidin-2-yl]-2-(3,5-difluorophenyl)ethyl]-2-[(2S,4R)-9-(difluoromethyl)-5,5-difluoro-7,8-diazatricyclo[4.3.0.0^2,4]nona-1(6),8-dien-7-yl]acetamide] are 0.0174 nM and over 1000 nM.
For `COc1ccc2nc([C@H](Cc3cc(F)cc(F)c3)NC(=O)Cn3nc(C(F)F)c4c3C(F)(F)[C@@H]3C[C@H]43)n(-c3ccc(Cl)c4c(NS(C)(=O)=O)nn(C)c34)c(=O)c2c1` (single isomer, unassigned) [Example 173], the EC50 in data set [1] (Table 1a) was 32 nM. The same molecule came in with a CC50 at 4 days in data set [2] (Table 1a, day 4, XTT) of over 1000 nM.
`O=C(Cn1nc(C(F)F)c2c1C(F)(F)[C@@H]1C[C@H]21)N[C@@H](Cc1cc(F)cc(F)c1)c1nc2cn[nH]c2cc1-c1ccc(Cl)c(C(=O)NS(=O)(=O)C2CCCC2)c1` [Example 10.21, 2-Chloro-N-(cyclopentylsulfonyl)-5-(5-((S)-1-(2-((3bS,4aR)-3-(difluoromethyl)-5,5-difluoro-3b,4,4a,5-tetrahydro-1H-cyclopropa[3,4]cyclopenta[1,2-c]pyrazol-1-yl)acetamido)-2-(3,5-difluorophenyl)ethyl)-1H-pyrazolo[4,3-b]pyridin-6-yl)benzamide]: in data set [1] (Renilla, NL43, Table 1), the EC50 worked out at 240 nM. In data set [2] (Table 1, day 4, XTT), this molecule displayed a CC50 at 4 days of over 10000 nM.
Turning to `CC(C)c1ccc(-n2c([C@H](Cc3cc(F)cc(F)c3)NC(=O)Cn3nc(C(F)F)c4c3C(F)(F)[C@@H]3C[C@H]43)nc3cc(C#N)ccc3c2=O)cn1` [Example 163, N—((S)-1-(7-cyano-3-(6-isopropylpyridin-3-yl)-4-oxo-3,4-dihydroquinazolin-2-yl)-2-(3,5-difluorophenyl)ethyl)-2-((3bS,4aR)-3-(difluoromethyl)-5,5-difluoro-3b,4,4a,5-tetrahydro-1H-cyclopropa[3,4]cyclopenta[1,2-c]pyrazol-1-yl)acetamide], the EC50 in data set [1] (Renilla, NL43, Table 1a) worked out at 11.9 nM. The molecule also yielded a CC50 at 4 days in data set [2] (Table 1a, day 4, XTT) of 3980 nM.
As for `Cn1nc(NS(C)(=O)=O)c2c(Cl)ccc(-n3c([C@H](Cc4cc(F)cc(F)c4)NC(=O)Cn4nc(C(F)F)c5c4C(F)(F)[C@@H]4C[C@H]54)nc4ccc(OC(F)(F)F)cc4c3=O)c21` (single isomer, unassigned) [Example 140], the EC50 in data set [1] (Renilla, NL43, Table 1a) worked out at 0.32 nM. In data set [2] (Table 1a, day 4, XTT), the CC50 at 4 days was over 1000 nM.
For `COc1ccc2c(=O)n(-c3ccc(Cl)c4c(NS(C)(=O)=O)nn(C)c34)c([C@H](Cc3cc(F)cc(F)c3)NC(=O)Cn3ccc(C4CC4)n3)nc2n1` (mixture of isomers) [Example 58.1, N-[(1S)-1-[3-(4-chloro-3-methanesulfonamido-1-methyl-1H-indazol-7-yl)-7-methoxy-4-oxo-3H,4H-pyrido[2,3-d]pyrimidin-2-yl]-2-(3,5-difluorophenyl)ethyl]-2-(3-cyclopropyl-1H-pyrazol-1-yl)acetamide], the EC50 in data set [1] (Table 1a) stood at 2.26 nM. This molecule showed a CC50 at 4 days in data set [2] (Table 1a, day 4, XTT) of over 1000 nM.
On the same counts, the results for `Cn1nc(NS(C)(=O)=O)c2c(Cl)ccc(-n3c([C@H](Cc4cc(F)cc(F)c4)NC(=O)Cn4nc(C(F)F)c5c4C(F)(F)[C@@H]4C[C@H]54)nc4cc(Cl)cc(Cl)c4c3=O)c21` (single isomer, unassigned) [Example 179] are 0.077 nM and over 1000 nM.
For `N#Cc1cccc(-c2cc3[nH]ncc3nc2[C@H](Cc2cc(F)cc(F)c2)NC(=O)Cn2nc(C(F)F)c3c2C(F)(F)[C@@H]2C[C@H]32)c1` [Example 10.2, N—((S)-1-(6-(3-cyanophenyl)-1H-pyrazolo[4,3-b]pyridin-5-yl)-2-(3,5-difluorophenyl)ethyl)-2-((3bS,4aR)-3-(difluoromethyl)-5,5-difluoro-3b,4,4a,5-tetrahydro-1H-cyclopropa[3,4]cyclopenta[1,2-c]pyrazol-1-yl)acetamide], the EC50 in data set [1] (Renilla, NL43, Table 1) stood at 460 nM. The molecule also gave a CC50 at 4 days in data set [2] (Table 1, day 4, XTT) of 9700 nM.
For the molecule `Cn1nc(NS(C)(=O)=O)c2c(Cl)ccc(-c3cc4[nH]ncc4nc3[C@@H](Cc3cc(F)cc(F)c3)NC(=O)Cn3nc(C(F)F)c4c3C(F)(F)[C@@H]3C[C@H]43)c21` [Example 3.8, N—((R)-1-(6-(4-chloro-1-methyl-3-(methylsulfonamido)-1H-indazol-7-yl)-1H-pyrazolo[4,3-b]pyridin-5-yl)-2-(3,5-difluorophenyl)ethyl)-2-((3bS,4aR)-3-(difluoromethyl)-5,5-difluoro-3b,4,4a,5-tetrahydro-1H-cyclopropa[3,4]cyclopenta[1,2-c]pyrazol-1-yl)acetamide], the EC50 in data set [1] (Renilla, NL43, Table 1) is 21 nM. Also, the CC50 at 4 days in data set [2] (Table 1, day 4, XTT) worked out at 10200 nM.
As to `Cc1ccc2c(=O)n(-c3ccc(Cl)c4c(NS(C)(=O)=O)nn(C)c34)c(C(Cc3cc(F)cc(F)c3)NC(=O)Cn3nc(C(F)F)c4c3C(F)(F)[C@@H]3C[C@H]43)nc2n1` (mixture of isomers) [Example 41.1], in data set [1] (Renilla, NL43, Table 1a), the EC50 was 21.2 nM. The molecule also returned a half-maximal cytotoxic concentration (CC50) at 4 days in data set [2] (Table 1a, day 4, XTT) of over 10000 nM.
Consider `O=C(Cn1nc(C(F)F)c2c1C(F)(F)[C@@H]1C[C@H]21)NC(Cc1cc(F)cc(F)c1)c1nc2ncccc2c(=O)n1-c1ccc(Cl)cc1` (stereo partly drawn) [Example 123, N-(1-(3-(4-chlorophenyl)-4-oxo-3,4-dihydropyrido[2,3-d]pyrimidin-2-yl)-2-(3,5-difluorophenyl)ethyl)-2-((3bS,4aR)-3-(difluoromethyl)-5,5-difluoro-3b,4,4a,5-tetrahydro-1H-cyclopropa[3,4]cyclopenta[1,2-c]pyrazol-1-yl)acetamide], for which, in data set [1] (Renilla, NL43, Table 1a), the EC50 amounted to 408 nM. Further, the CC50 at 4 days in data set [2] (Table 1a, day 4, XTT) was over 1000 nM.
For `O=C(Cc1c[nH]c2ccc(O)cc12)NC(Cc1cc(F)cc(F)c1)c1nc2cn[nH]c2cc1-c1ccc2scnc2c1` (single isomer, unassigned) [Example 3.3, N-(1-(6-(benzo[d]thiazol-5-yl)-1H-pyrazolo[4,3-b]pyridin-5-yl)-2-(3,5-difluorophenyl)ethyl)-2-(5-hydroxy-1H-indol-3-yl)acetamide], in data set [1] (Table 1), the EC50 is 5.7 nM. Besides, the CC50 at 4 days in data set [2] (Table 1, day 4, XTT) was 42400 nM.
Regarding `Cc1cccc2c(=O)n(-c3ccc(Cl)c4c(NS(C)(=O)=O)nn(C)c34)c([C@H](Cc3cc(F)cc(F)c3)NC(=O)Cn3nc(C(F)F)c4c3C(F)(F)[C@@H]3C[C@H]43)nc12` (single isomer, unassigned) [Example 97], in data set [1] (Table 1a), the EC50 worked out at 30.6 nM. This molecule also had a CC50 at 4 days in data set [2] (Table 1a, day 4, XTT) of over 1000 nM.
